Measured values reported in PMC12399242 (Acta Pharmaceutica Sinica. B, 2025).
Like-named read-outs stand apart in the source and are kept apart here.

Columns and labels:
HIV-1 (IIIB) [1] = experiment: microbe, parasite or virus in culture; assay type: cell-based; conditions: for EC50: mean ± SD, n ≥ 3; for SI (IIIB): selectivity index, ratio CC50/EC50
Description: (§1) Inspired by our previous research on heteroaromatic-biphenyl-DAPYs[15], the 4-cyanophenyl group on the biphenyl moiety was replaced with a privileged 4-pyridyl group for further evaluation.

HIV-1 K103N = experiment: Antiviral activity against HIV-1 mutant K103N in MT-4 cells; assay type: cell-based
HIV-1 F227L + V106A = experiment: microbe, parasite or virus in culture; assay type: cell-based
in vitro = conditions: human, CC50
Description: as §1

MT-4 cells [2] = experiment: in vitro
Description: as §1

[3] = system: HIV-1 K103N + Y181C (RES056); experiment: Antiviral activity against HIV-1 double mutant K103N + Y181C (RES056) in MT-4 cells; assay type: cell-based
HIV-1 E138K = experiment: Antiviral activity against HIV-1 mutant E138K in MT-4 cells; assay type: cell-based
WT HIV-1 RT = WT HIV-1 RT (Human immunodeficiency virus type 1 group M subtype B, UniProt P03366); experiment: Inhibition of WT HIV-1 RT polymerase activity
Description: The anti-HIV-1 activity of A1–A24 and B1–B22 at the cellular or enzyme level were evaluated following our previously reported method[15].

HIV-1 Y181C = experiment: Antiviral activity against HIV-1 mutant Y181C in MT-4 cells; assay type: cell-based
HIV-1 L100I = experiment: Antiviral activity against HIV-1 mutant L100I in MT-4 cells; assay type: cell-based
HIV-1 Y188L = experiment: Antiviral activity against HIV-1 mutant Y188L in MT-4 cells; assay type: cell-based
HIV-1 (IIIB) [4] = conditions: earlier compounds of Fig. 1 / introduction, cited from earlier work; for EC50: WT HIV-1
MT-4 cells [5] = conditions: earlier compounds of Fig. 1 / introduction; cited from earlier work
[6] = Human immunodeficiency virus 1, IIIB, MT4, WT HIV-1, protection of MT-4 cells against HIV-induced cytopathogenicity
[7] = WT HIV-1, protection of MT-4 cells against HIV-induced cytopathogenicity
[8] = Human immunodeficiency virus 1, MT4, read-out: EC50 K103N
[9] = Human immunodeficiency virus 1, MT4, read-out: EC50 F227L + V106A
[10] = Human immunodeficiency virus 1, MT4, read-out: EC50 K103N + Y181C
[11] = Human immunodeficiency virus 1, MT4, read-out: EC50 E138K
[12] = Human immunodeficiency virus 1, MT4, read-out: EC50 Y181C
[13] = Human immunodeficiency virus 1, MT4, read-out: EC50 L100I
[14] = Human immunodeficiency virus 1, MT4, read-out: EC50 Y188L

In the case of `N#Cc1ccc(Nc2ncc(F)c(Oc3ccc(-c4ccc(C#N)cc4)cc3F)n2)cc1` [A1, 4′-((2-((4-Cyanophenyl)amino)-5-fluoropyrimidin-4-yl)oxy)-3′-fluoro-[1,1′-biphenyl]-4-carbonitrile], the EC50 (HIV-1 (IIIB) [1]; [6]) is reported as at most 5.3 nM, the EC50 (HIV-1 (IIIB) [1]; [7]) is reported as 4.2 ± 1.4 nM and the “SI (IIIB)” value (HIV-1 (IIIB) [1]) is reported as >10,870. The EC50 (HIV-1 K103N; [8]) was 52 ± 42 nM, the EC50 (HIV-1 F227L + V106A; [9]) was over 47000 nM and the CC50 (in vitro) was over 45000 nM. The CC50 (MT-4 cells [2]; human) was over 47000 nM, the EC50 [3, 10] was over 47000 nM and the EC50 (HIV-1 E138K; [11]) was 28 ± 12 nM. For the same compound, the IC50 (WT HIV-1 RT) was 54 ± 9.4 nM, the EC50 (HIV-1 Y181C; [12]) was 306 ± 117 nM and the EC50 (HIV-1 L100I; [13]) was 174 ± 49 nM. For the same compound, the EC50 (HIV-1 Y188L; [14]) was over 47000 nM.

With `N#Cc1ccc(Nc2ncc(F)c(Nc3c(F)cc(-c4ccc(C#N)cc4)cc3F)n2)cc1` [A11, 4′-((2-((4-Cyanophenyl)amino)-5-fluoropyrimidin-4-yl)amino)-3′,5′-difluoro-[1,1′-biphenyl]-4-carbonitrile] the “SI (IIIB)” value (HIV-1 (IIIB) [1]) was >40,000, the EC50 (HIV-1 K103N; [8]) was 5 ± 1.1 nM and the EC50 (HIV-1 F227L + V106A; [9]) was over 45200 nM. For the same compound, the CC50 (in vitro) was over 45000 nM, the EC50 [3, 10] was over 45200 nM and the EC50 (HIV-1 E138K; [11]) was 2.5 ± 0.7 nM. It also gave an IC50 (WT HIV-1 RT) of 27 ± 2.3 nM, an EC50 (HIV-1 Y181C; [12]) of 8.1 ± 2 nM and an EC50 (HIV-1 L100I; [13]) of 10 ± 2.9 nM. It also gave an EC50 (HIV-1 Y188L; [14]) of over 45200 nM.

In the case of `O=C1Nc2ccc(Cl)cc2[C@@](C#CC2CC2)(C(F)(F)F)O1` [EFV, reference compound], the EC50 (HIV-1 (IIIB) [1]; [7]) is reported as 3.8 ± 1 nM, the “SI (IIIB)” value (HIV-1 (IIIB) [1]) is reported as over 1618 and the EC50 (HIV-1 K103N; MT-4 cells, mean ± SD, n ≥ 3, read-out: EC50 K103N) is reported as 60 ± 19 nM. The EC50 (HIV-1 F227L + V106A; MT-4 cells, mean ± SD, n ≥ 3, read-out: EC50 F227L + V106A) was 181 ± 89 nM, the CC50 (MT-4 cells [2]; uninfected MT-4 cells, mean ± SD, n ≥ 3) was over 6300 nM and the EC50 ([3]; RES056, MT-4 cells, mean ± SD, n ≥ 3, read-out: EC50 K103N + Y181C) was 314 ± 146 nM. The EC50 (HIV-1 E138K; MT-4 cells, mean ± SD, n ≥ 3, read-out: EC50 E138K) was 5.4 ± 1.6 nM, the EC50 (HIV-1 Y181C; MT-4 cells, mean ± SD, n ≥ 3, read-out: EC50 Y181C) was 6.3 ± 2.5 nM and the EC50 (HIV-1 L100I; MT-4 cells, mean ± SD, n ≥ 3, read-out: EC50 L100I) was 24 ± 9.5 nM. For the same compound, the EC50 (HIV-1 Y188L; MT-4 cells, mean ± SD, n ≥ 3, read-out: EC50 Y188L) was 244 ± 95 nM.

For `N#Cc1ccc(Nc2nccc(Nc3c(F)cc(-c4ccc(C#N)cc4)cc3F)n2)cc1` [compound 4], the EC50 (HIV-1 (IIIB) [4]) is given as 1.3 nM, the SI (HIV-1 (IIIB) [4]) is given as > 238,095 and the CC50 (MT-4 cells [5]) is given as over 294000 nM.

For `Cc1cc(-c2ccc(C#N)cc2)cc(C)c1Nc1ccnc(Nc2ccc(C#N)cc2)n1` [compound 3], the EC50 (HIV-1 (IIIB) [4]) is given as 1 nM and the SI (HIV-1 (IIIB) [4]) is given as 2,059.

`N#Cc1ccc(Nc2ncc(Cl)c(Nc3c(F)cc(-c4ccc(C#N)cc4)cc3F)n2)cc1` [B10, 4′-((5-Chloro-2-((4-cyanophenyl)amino)pyrimidin-4-yl)amino)-3′,5′-difluoro-[1,1′-biphenyl]-4-carbonitrile] showed an EC50 (HIV-1 K103N; [8]) of 5 ± 2.4 nM, an EC50 (HIV-1 F227L + V106A; [9]) of 959 ± 327 nM and an EC50 [3, 10] of 676 ± 349 nM. It also gave an EC50 (HIV-1 E138K; [11]) of 5.7 ± 2.8 nM, an IC50 (WT HIV-1 RT) of 31 ± 2.2 nM and an EC50 (HIV-1 Y181C; [12]) of 11 ± 1.5 nM. The EC50 (HIV-1 L100I; [13]) was 17 ± 8.1 nM and the EC50 (HIV-1 Y188L; [14]) was 187 ± 52 nM.

In the case of `Cc1cc(-c2ccc(C#N)cc2)cc(C)c1Nc1nc(Nc2ccc(C#N)cc2)ncc1Cl` [B11, 4′-((5-Chloro-2-((4-cyanophenyl)amino)pyrimidin-4-yl)amino)-3′,5′-dimethyl-[1,1′-biphenyl]-4-carbonitrile], the EC50 (HIV-1 (IIIB) [1]; [6]) is reported as at most 5.3 nM, the EC50 (HIV-1 (IIIB) [1]; [7]) is reported as 5.3 ± 1.8 nM and the “SI (IIIB)” value (HIV-1 (IIIB) [1]) is reported as 47,357. The EC50 (HIV-1 K103N; [8]) was 4.4 ± 1.1 nM, the EC50 (HIV-1 F227L + V106A; [9]) was 164 ± 71 nM and the EC50 [3, 10] was 102 ± 24 nM. It also gave an EC50 (HIV-1 E138K; [11]) of 12 ± 6.9 nM, an IC50 (WT HIV-1 RT) of 53 nM and an EC50 (HIV-1 Y181C; [12]) of 9.8 ± 3.3 nM. The EC50 (HIV-1 L100I; [13]) was 5.5 ± 1.8 nM and the EC50 (HIV-1 Y188L; [14]) was 33 ± 6.7 nM.

With `Cc1cc(-c2ccc(C#N)cc2)ccc1Oc1nc(Nc2ccc(C#N)cc2)ncc1Cl` [B3, 4′-((5-Chloro-2-((4-cyanophenyl)amino)pyrimidin-4-yl)oxy)-3′-methyl-[1,1′-biphenyl]-4-carbonitrile] the EC50 (HIV-1 (IIIB) [1]; [6]) was 7.1 ± 1.6 nM, the “SI (IIIB)” value (HIV-1 (IIIB) [1]) was over 6542 and the CC50 (in vitro) was over 46000 nM.

For `N#Cc1ccc(Nc2ncc(F)c(Oc3ccc(-c4ccncc4)cc3F)n2)cc1` [A13, 4-((5-Fluoro-4-(2-fluoro-4-(pyridin-4-yl)phenoxy)pyrimidin-2-yl)amino)benzonitrile], the EC50 (HIV-1 (IIIB) [1]; [6]) was 9.7 ± 3.7 nM, the “SI (IIIB)” value (HIV-1 (IIIB) [1]) was over 5147 and the CC50 (in vitro) was over 50000 nM.

With `Cc1cc(-c2ccc(C#N)cc2)ccc1Nc1nc(Nc2ccc(C#N)cc2)ncc1Cl` [B8, 4′-((5-Chloro-2-((4-cyanophenyl)amino)pyrimidin-4-yl)amino)-3′-methyl-[1,1′-biphenyl]-4-carbonitrile] the EC50 (HIV-1 (IIIB) [1]; [6]) was 8.2 ± 1.6 nM, the “SI (IIIB)” value (HIV-1 (IIIB) [1]) was over 5556 and the CC50 (in vitro) was over 46000 nM.

With `N#Cc1ccc(Nc2ncc(F)c(Oc3c(F)cc(-c4ccc(C#N)cc4)cc3F)n2)cc1` [A5, 4′-((2-((4-Cyanophenyl)amino)-5-fluoropyrimidin-4-yl)oxy)-3′,5′-difluoro-[1,1′-biphenyl]-4-carbonitrile] the EC50 (HIV-1 (IIIB) [1]; [6]) was 6.3 ± 3.2 nM, the “SI (IIIB)” value (HIV-1 (IIIB) [1]) was over 7143 and the CC50 (in vitro) was over 45000 nM.
